# Data reported in patent publication US11179383B2 (Gilead Sciences, Inc., priority 2018, dated 2021).
# Target: T1, α4β7 integrin (Homo sapiens, UniProt P13612+P26010)
# T1 construct: monitoring the capture of α4β7 integrin expressing cells on a recombinant MadCAM-1 extracellular domain-coated plate; endogenous in cells; host or cells: RPMI8866 cells
# T1 sequence (P13612 34-1032): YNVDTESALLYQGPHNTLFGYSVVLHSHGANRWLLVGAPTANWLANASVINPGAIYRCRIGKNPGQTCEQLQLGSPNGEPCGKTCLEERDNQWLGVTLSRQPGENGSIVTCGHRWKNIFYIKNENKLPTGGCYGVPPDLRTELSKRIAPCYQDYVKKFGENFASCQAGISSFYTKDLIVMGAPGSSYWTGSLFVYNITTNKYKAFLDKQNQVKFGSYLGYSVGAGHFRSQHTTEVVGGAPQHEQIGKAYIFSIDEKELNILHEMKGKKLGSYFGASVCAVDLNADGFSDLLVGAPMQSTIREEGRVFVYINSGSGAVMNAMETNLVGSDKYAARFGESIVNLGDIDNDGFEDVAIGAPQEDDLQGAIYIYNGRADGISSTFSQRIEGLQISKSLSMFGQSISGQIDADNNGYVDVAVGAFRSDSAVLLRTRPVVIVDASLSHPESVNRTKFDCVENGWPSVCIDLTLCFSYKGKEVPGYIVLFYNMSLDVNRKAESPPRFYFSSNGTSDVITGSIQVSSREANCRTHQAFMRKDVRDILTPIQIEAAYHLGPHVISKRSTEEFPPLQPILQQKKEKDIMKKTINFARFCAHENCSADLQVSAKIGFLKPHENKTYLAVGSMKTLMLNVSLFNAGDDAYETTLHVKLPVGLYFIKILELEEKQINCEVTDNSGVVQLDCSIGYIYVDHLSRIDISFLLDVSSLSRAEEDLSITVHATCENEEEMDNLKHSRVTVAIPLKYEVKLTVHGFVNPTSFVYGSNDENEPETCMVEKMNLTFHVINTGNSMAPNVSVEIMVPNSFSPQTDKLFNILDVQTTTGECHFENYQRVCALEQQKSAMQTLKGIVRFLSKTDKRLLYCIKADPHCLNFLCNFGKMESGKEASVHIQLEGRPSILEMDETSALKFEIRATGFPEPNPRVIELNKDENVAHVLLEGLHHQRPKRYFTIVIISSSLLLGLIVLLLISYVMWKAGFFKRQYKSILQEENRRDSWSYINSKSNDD
# T1 sequence (P26010 20-798): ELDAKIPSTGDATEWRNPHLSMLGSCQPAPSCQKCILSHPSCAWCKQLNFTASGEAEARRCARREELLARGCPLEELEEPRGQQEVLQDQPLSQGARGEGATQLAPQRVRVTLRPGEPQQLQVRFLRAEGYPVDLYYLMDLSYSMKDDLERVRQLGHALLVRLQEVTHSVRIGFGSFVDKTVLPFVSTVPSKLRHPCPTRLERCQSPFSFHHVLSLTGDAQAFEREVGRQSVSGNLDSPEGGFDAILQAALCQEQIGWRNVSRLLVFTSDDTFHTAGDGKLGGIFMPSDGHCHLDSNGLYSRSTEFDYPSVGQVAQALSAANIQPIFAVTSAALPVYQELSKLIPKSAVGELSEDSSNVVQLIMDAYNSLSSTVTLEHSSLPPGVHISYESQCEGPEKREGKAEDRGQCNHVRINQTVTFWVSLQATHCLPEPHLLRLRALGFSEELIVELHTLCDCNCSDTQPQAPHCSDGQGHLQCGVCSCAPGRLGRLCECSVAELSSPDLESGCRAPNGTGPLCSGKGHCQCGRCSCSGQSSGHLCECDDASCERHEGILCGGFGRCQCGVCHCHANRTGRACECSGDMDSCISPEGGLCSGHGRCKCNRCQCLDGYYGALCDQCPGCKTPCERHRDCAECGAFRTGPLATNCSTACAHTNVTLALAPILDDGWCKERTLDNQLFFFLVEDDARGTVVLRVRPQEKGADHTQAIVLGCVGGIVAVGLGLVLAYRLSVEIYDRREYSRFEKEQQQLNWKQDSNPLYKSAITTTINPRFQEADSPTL
# Experiment: α4β7 Integrin Cell Capture Assay
# Assay type: cell-based
# Settings: capture of α4β7 integrin expressing RPMI8866 cells on recombinant MadCAM-1 extracellular domain-coated plate; DMEM+0.5% FBS+0.5 mM MnCl2; read-out: EC50 α4β7
# In short: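 RPMI8866 cells in DMEM + 0.5% FBS + 0.5 mM MnCl2 preincubated with compound 1 h at 37 °C, then allowed to bind 30 min at 37 °C to plates coated with MAdCAM-1 extracellular domain (1.0 μg/mL). Cells fixed with glutaraldehyde, Hoechst-stained, imaged and bound cells counted; EC50 from cell count versus concentration.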
row,EC50,Compound
1,2.6 nM,"COc1cccc(OC)c1-c1ccc(C[C@H](NC(=O)c2c(F)cc(NS(=O)(=O)c3ccc(-c4ccnc(F)c4)cc3)cc2F)C(=O)O)c2nccnc12 [Example 154, (S)-2-(2,6-difluoro-4-((4-(2-fluoropyridin-4-yl)phenyl)sulfonamido)benzamido)-3-(8-(2,6-dimethoxyphenyl)quinoxalin-5-yl)propanoic acid]"
2,1.6 nM,"CCOCc1cc(OC)c(-c2ccc(C[C@H](NC(=O)c3c(F)cc(NS(=O)(=O)c4ccc(-c5ccnc(F)c5)cc4)cc3F)C(=O)O)c3nccnc23)c(OC)c1 [Example 155, (S)-2-(2,6-difluoro-4-((4-(2-fluoropyridin-4-yl)phenyl)sulfonamido)benzamido)-3-(8-(4-(ethoxymethyl)-2,6-dimethoxyphenyl)quinoxalin-5-yl)propanoic acid]"
3,135 nM,"O=C(N[C@@H](Cc1ccc(-c2c(Cl)cc(F)cc2Cl)c2nccnc12)C(=O)O)c1c(F)cccc1F [Example 156, (S)-3-(8-(2,6-dichloro-4-fluorophenyl)quinoxalin-5-yl)-2-(2,6-difluorobenzamido)propanoic acid]"
4,161 nM,"O=C(N[C@@H](Cc1ccc(-c2c(Cl)cc(F)cc2Cl)c2nccnc12)C(=O)O)c1c(Cl)cccc1Cl [Example 157, (S)-3-(8-(2,6-dichloro-4-fluorophenyl)quinoxalin-5-yl)-2-(2,6-dichlorobenzamido)propanoic acid]"
5,0.4 nM,"CC[C@@H](Nc1cc(F)c(C(=O)N[C@@H](Cc2ccc(-c3c(C)c4cc(F)ccc4n(C)c3=O)c3nccnc23)C(=O)O)c(F)c1)C(F)(F)F [Example 158, (S)-2-(2,6-difluoro-4-(((R)-1,1,1-trifluorobutan-2-yl)amino)benzamido)-3-(8-(6-fluoro-1,4-dimethyl-2-oxo-1,2-dihydroquinolin-3-yl)quinoxalin-5-yl)propanoic acid]"
6,1.9 nM,"Cc1c(-c2ccc(C[C@H](NC(=O)c3c(F)cccc3F)C(=O)O)c3nccnc23)c(=O)n(C)c2ccc(F)cc12 [Example 159, (S)-2-(2,6-difluorobenzamido)-3-(8-(6-fluoro-1,4-dimethyl-2-oxo-1,2-dihydroquinolin-3-yl)quinoxalin-5-yl)propanoic acid]"
7,0.6 nM,"CCOCc1cc(OC)c(-c2ccc(CC(NC(=O)c3c(F)cc(NS(=O)(=O)c4ccc(-c5ccnc(F)c5)cc4)cc3F)C(=O)O)c3ccncc23)c(OC)c1 (stereo not drawn) [Example 160, 2-(2,6-difluoro-4-((4-(2-fluoropyridin-4-yl)phenyl)sulfonamido)benzamido)-3-(8-(4-(ethoxymethyl)-2,6-dimethoxyphenyl)isoquinolin-5-yl)propanoic acid]"
8,0.9 nM,"COc1cccc(OC)c1-c1ccc(CC(NC(=O)c2c(F)cc(NS(=O)(=O)c3ccc(-n4cncn4)cc3)cc2F)C(=O)O)c2cnccc12 (stereo not drawn) [Example 163, 2-(4-((4-(1H-1,2,4-triazol-1-yl)phenyl)sulfonamido)-2,6-difluorobenzamido)-3-(5-(2,6-dimethoxyphenyl)isoquinolin-8-yl)propanoic acid]"
9,24.4 nM,"CCOCc1cc(OC)c(-c2cnc(C[C@H](NC(=O)c3c(F)cc(NS(=O)(=O)c4ccc(-c5ccnc(F)c5)cc4)cc3F)C(=O)O)c3cccnc23)c(OC)c1 [Example 166, (S)-2-(2,6-difluoro-4-((4-(2-fluoropyridin-4-yl)phenyl)sulfonamido)benzamido)-3-(8-(4-(ethoxymethyl)-2,6-dimethoxyphenyl)-1,6-naphthyridin-5-yl)propanoic acid]"
10,836 nM,"CCOCc1cc(OC)c(-c2cnc(C[C@H](NC(=O)c3c(F)cccc3F)C(=O)O)c3cccnc23)c(OC)c1 [Example 167, (S)-2-(2,6-difluorobenzamido)-3-(8-(4-(ethoxymethyl)-2,6-dimethoxyphenyl)-1,6-naphthyridin-5-yl)propanoic acid]"
11,26.6 nM,"CCOCc1cc(OC)c(-c2ncc(C[C@H](NC(=O)c3c(F)cc(N[C@H](CC)C(F)(F)F)cc3F)C(=O)O)c3ccccc23)c(OC)c1 [Example 168, (S)-2-(2,6-difluoro-4-(((R)-1,1,1-trifluorobutan-2-yl)amino)benzamido)-3-(1-(4-(ethoxymethyl)-2,6-dimethoxyphenyl)isoquinolin-4-yl)propanoic acid]"
12,142 nM,"O=C(N[C@@H](Cc1ccc(-c2c(Cl)cc(F)cc2Cl)c2c1C=CCO2)C(=O)O)c1c(Cl)cccc1Cl [Example 169, (S)-3-(8-(2,6-dichloro-4-fluorophenyl)-2H-chromen-5-yl)-2-(2,6-dichlorobenzamido)propanoic acid]"
13,206 nM,"CC1(C)C=Cc2c(C[C@H](NC(=O)c3c(Cl)cccc3Cl)C(=O)O)ccc(-c3c(Cl)cc(F)cc3Cl)c2O1 [Example 170, (S)-3-(8-(2,6-dichloro-4-fluorophenyl)-2,2-dimethyl-2H-chromen-5-yl)-2-(2,6-dichlorobenzamido)propanoic acid]"
14,0.22 nM,Cc1nc(-c2ccc(C[C@H](NC(=O)c3c(F)cc(N4CCOC[C@@H]4C(F)(F)F)cc3F)C(=O)O)c3ccccc23)c(=O)n(C)c1C [Example 177]
15,0.09 nM,Cc1cc(N2CCOC[C@@H]2C(F)(F)F)cc(F)c1C(=O)N[C@@H](Cc1ccc(-n2c(=O)c3ccncc3n(C)c2=O)n2nccc12)C(=O)O [Example 180]
